Patent US12569459B2, “Compositions and methods for treating pulmonary edema or lung inflammation” (priority 2020, dated 2026)

What was measured:
[1] = Phase I/II trial of instilled T3: serum thyroid hormone levels; assay type: in vivo, human
Source text: Ten milliliters (mls) of reformulated, pH-adjusted commercial intravenous T3 solution (Par Pharmaceutical, Navi Mumbai, India; and XGen Pharmaceuticals DJB, Inc., Horseheads, NY) was instilled directly into the airspaces via a suction catheter in the endotracheal tube of intubated patients with ARDS. […] The study was approved by the Essentia IRB (Duluth, MN) and listed on ClinicalTrials.gov (NCT04115514).
Subsequent doses were given on days 4, 6, and 7. […] Despite Klebsiella aerogenes positive sputum culture, they were extubated on ventilator day 11. After discharge from the ICU, they had some confusion and delirium.

in vivo = experiment: in vivo; set-up: species or system Sprague-Dawley rats; settings: Sprague-Dawley, rat; for Cmax_D / Vz_F_obs / AUC(0-inf): inhaled or intranasal; for AUC(0-inf): 2.73 ug
Experimental: Sixty animals (plus two spare animals/sex/group) were anesthetized and dosed via intratracheal instillation of test or control materials for five consecutive days. On the day after the last dose a terminal blood collection was performed for clinical pathology, after which animals were euthanized and a gross examination of all organs was performed by a board-certified veterinary pathologist. Select tissues were collected for histopathology. […] Terminal blood collection was performed at two designated time points per animal up to 24 hours after administration for toxicokinetic evaluation. TK animals were euthanized without further evaluation after the final blood collection. All animals were acclimated for a minimum of seven days prior to the dosing procedure. Animals underwent baseline observations and examinations prior to the initiation of the study, and clinical observations and body weight monitoring were performed throughout the in-life portion of the study. All animals received the same dose volume (0.3 mL) of either test or control materials. This maximum feasible dose (MFD) is constrained by the maximum volume that can be safely and reproducibly (over five days) instilled into lungs of rats weighing 250 g to 350 g, which was determined in preliminary toxicology studies to be 0.3 mL. Actual doses delivered are reported as both μg/kg body weight and μg/gm wet lung weight. The toxicity phase animals were 72-135 days of age at the time of initial dosing. Males weighed between 256.52 g and 307.50 g with a mean±standard deviation of 286.74±11.77 g, and females weighed between 250.46 g and 299.01 g with a mean±standard deviation of 260.64±10.34 g. The TK phase animals were 68-144 days of age at the time of initial dosing. Males weighed between 261.23 g and 316.19 g; females weighed between 250.06 g and 280.32 g.
For toxicokinetic experiments, rats were anesthetized with combination of ketamine 40 mg/kg to 200 mg/kg and xylazine 1 mg/kg to 7 mg/kg, intraperitoneally (IP), to effect for dosing procedures, and dosed intratracheally with liothyronine sodium injection as previously described. Depending on the duration of time between dosing and the first or second blood collection time points, animals either had blood collected while still anesthetized under the injectable anesthetics, or if recovered, they were anesthetized with Isoflurane 2-5% and oxygen 1-1.5 L/minute by inhalation anesthesia via nose cone, as needed, to maintain adequate anesthesia depth (assessed by toe pinch). Topical proparicaine anesthetic ophthalmic solution was applied to each eye prior to performing the first blood collection and allowed time to take effect. Collection of serum samples for TK analysis was as described for serum chemistry samples above, and samples were stored at ≤−70° C. until assayed. Animals were euthanized with EUTHASOL (Virbac Corp., Fort Worth, TX)≥86 mg/kg IP to effect following the final blood collection.
For assessment of serum T3 levels samples were sent to the Fairview University of Minnesota Medical Center East Bank Diagnostic Laboratory for analysis, a clinical laboratory certified by CLIA and CAP. Prior to sending serum samples to the analytical lab each sample was diluted 1:4 or 1:8 in normal (0.9%) saline. […] Samples were analyzed by a chemiluminescence assay for total triiodothyronine (T3).
Toxicokinetic parameters were estimated using Phoenix 64 WinNonlin pharmacokinetic software version 7.0. (Pharsight Corp., Mountain View, CA). A non-compartmental (NCA) approach consistent with the route of administration was used for parameter estimation. […] Whenever possible, mean concentrations were derived from three animals/gender/time point. Parameters were estimated using sampling times relative to the start of each dose administration. The raw data was converted to ng/ml of serum by dividing the […] values by 100 and then multiplying by the dilution factor for that sample, either 4 or 8. […]

[2] = single oral dose of 50 micrograms; cited from earlier work
[3] = tested on: Sprague Dawley rats exposed to normobaric hyperoxia; experiment: Hyperoxia-induced lung injury (HALI) model with intraperitoneal T3
HO-1 = experiment: Western blot of HO-1 protein in RLE-6TN cells under hyperoxia; assay type: cell-based, rat; settings: T3 10^−6 M
Experimental: FIG. 10. HO-1 Upregulation is required for T3-increased RLE-6TN cell survival in hyperoxia. […] The cells were then collected for Western Blot analysis. (B) The cells were incubated in 21% O2 and 5% CO2 for 72 hours in the present of HO-1 inhibitor Tin Protoporphyrin IX(10^−6 M) tinT3 (10^−6 M). […] Cell viability is assessed with trypan blue. The number of viable cells under specific conditions is presented as a percentage of the cell number related to hyperoxia alone. Data are mean±s.d. of three independent experiments with *=P<0.05; **=P<0.01.
At the end of the hyperoxia exposure period, the viable cells were counted by trypan blue dye exclusion.
The cells were lysed in lysis buffer containing 20 mM Tris HCl (pH 7.5), 150 mM NaCl, 1 mM EDTA, 1 mM EGTA, 1% (vol/vol) Triton X-100 with protease inhibitors (1 mM PMSF, 2 μg/ml pepstatin, and 10 μg/ml each of aprotinin and leupeptin), and phosphatase inhibitors (2.5 mM sodium pyrophosphate, 1 mM β-glycerophosphate, and 1 mM Na3VO4). The lysate was drawn 10 times through a 25-gauge needle on ice for further lysis and then was centrifuged at 13,000 rpm for 15 minutes at 4° C. The supernatant was collected, and the protein concentrations were determined by use of the BCA protein assay kit (Sigma-Aldrich, St. Louis, MO). Immediately after this step, equal amounts of protein were subjected to Western blotting analysis.

[4] = Preliminary dose-finding studies, intravenous vs intratracheal 3.0 μg neutral pH T3; assay type: in vivo, rats
Experimental: FIG. 6. […] A single dose of T3 was administered intravenously (diamonds) or via intratracheal instillation (squares). Samples were analyzed for total T3 using a chemiluminescence assay.

[5] = tested on: rat lung mucosa and airspaces; settings: in vivo
Experimental: Using aseptic technique, vials of liothyronine sodium were opened and the entire contents were transferred into sterile 1.5 mL Eppendorf tubes. 80-90 μL of 1.0 N HCl was added to the tube and gently vortexed, and the pH was measured using pH test strips (pH 4.5 to 10.0, Ricca Chemical Co., Arlington, TX). Additional HCl was titrated in gradually, as needed, until the pH was in the desired range. […] This solution was stored at 4° C. and used for up to 26 hours after pH adjustment procedure.

[6] = 3.0 μg T3 intratracheally vs 3.0 μg intravenously

SMILES: N[C@@H](Cc1cc(I)c(Oc2ccc(O)c(I)c2)c(I)c1)C(=O)O [T3, triiodothyronine]
- Serum free T3 levels ([1]; Patient 1, four 50-μg daily instilled doses, all days of treatment): 1.9 to 3.4 pg/mL
- Serum free T3 levels ([1]; Patient 2, escalating daily instilled doses 5, 10, 25, 50 μg): <1.5 to 2.2 pg/mL
- Cl_F_obs (in vivo; female): 30.10 mL/h
- HL_Lambda_z (in vivo; female): 2.85 h
- Cmax_D (in vivo; female): 6.12 ng/mL/µg
- Vz_F_obs (in vivo; female): 123.60 mL
- AUC(0-inf) (in vivo; female): 89.7 ng·h/mL
- Cl_F_obs (in vivo; male): 74.29 mL/h
- HL_Lambda_z (in vivo; male): 3.17 h
- Cmax_D (in vivo; male): 2.44 ng/mL/µg
- Vz_F_obs (in vivo; male): 339.44 mL
- AUC(0-inf) (in vivo; male): 36.3 ng·h/mL
- Time of peak serum concentration [2]: 2.5 h
- Time of physiologic effect of increased heart rate [2]: five hours
- BALF protein concentration ([3]; 48-hour and 60-hour time points of hyperoxia, vs hyperoxia alone): attenuated significantly the hyperoxic increases in the BALF protein concentration
- Serum total T3 ([3]; 95% oxygen 60 hours, intraperitoneal T3 supplementation (50 μg/kg bodyweight/24 hours)): augmented serum total T3
- MPO-positive cells in the lungs (immunostaining) ([3]; 95% oxygen 60 hours, vs hyperoxic lungs without T3): fewer MPO-positive cells
- BALF cell numbers ([3]; 48 hours and 60 hours of 95% oxygen, vs hyperoxia alone): significantly reduced the BALF cell numbers
- Lung morphology (histopathology) ([3]; 60 hours hyperoxia, systemic T3 supplementation): persistence of virtually normal lung morphology
- Lung MPO activity ([3]; 60 hours of hyperoxia): significantly reduced the hyperoxia-induced MPO activity
- Total cellular HO-1 protein (HO-1): significantly enhanced total cellular protein of HO-1
- AUC after intratracheal relative to intravenous administration [4, 6]: ⅕
- T3 Cmax after intratracheal relative to intravenous administration [4, 6]: 1/17
- Acute effects on physiologic parameters (respiratory rate, O2 saturation, heart rate) ([4]; single intravenous delivery or five days of intratracheal delivery of 3.0 μg neutral pH T3): no acute effects on physiologic parameters
- Toxicity of instillation into airway and lung [5]: extremely toxic to rat lung mucosa and airspaces
